Results from patent US20210403435A1, “HERBICIDAL COMPOUNDS” (SYNGENTA CROP PROTECTION AG, priority 2018, published 2021).
Structures can show the parent of a compound that is named as a salt. Where two headings read alike, the source gives them in different places.

Legend:
Assay in all cases: Post-emergence efficacy, glasshouse, evaluated after 13 days
Format in all cases: in vivo
Eleusine indica (ELEIN) = settings: for pest or weed control at 500 g/ha: Eleusine indica, 312 h, read-out: Control of weed species ELEIN (100=total damage to plant; 0=no damage to plant)
Procedure: (§1) Seeds of a variety of test species were sown in standard soil in pots. After cultivation for 14 days (post-emergence) under controlled conditions in a glasshouse (at 24/16° C., day/night; 14 hours light; 65% humidity), the plants were sprayed with an aqueous spray solution derived from the dissolution of the technical active ingredient formula (I) in a small amount of acetone and a special solvent and emulsifier mixture referred to as IF50 (11.12% Emulsogen EL360 TM+44.44% N-methylpyrrolidone+44.44% Dowanol DPM glycol ether), to create a 50 g/l solution which was then diluted to required concentration using 0.25% or 1% Empicol ESC70 (Sodium lauryl ether sulphate)+1% ammonium sulphate as diluent.
(§2) The test plants were then grown in a glasshouse under controlled conditions (at 24/16° C., day/night; 14 hours light; 65% humidity) and watered twice daily. After 13 days the test was evaluated (100=total damage to plant; 0=no damage to plant).
(§3) Ipomoea hederacea (IPOHE), Euphorbia heterophylla (EPHHL), Chenopodium album (CHEAL), Amaranthus palmeri (AMAPA), Lolium perenne (LOLPE), Digitaria sanguinalis (DIGSA), Eleusine indica (ELEIN), Echinochloa crus-galli (ECHCG), Setaria faberi (SETFA)

[1] = system: Ipomoea hederacea (IPOHE); settings: for pest or weed control at 500 g/ha: Ipomoea hederacea, 312 h, read-out: Control of weed species IPOHE (100=total damage to plant; 0=no damage to plant)
Procedure: as §1, §2, §3

[2] = system: Echinochloa crus-galli (ECHCG); settings: for pest or weed control at 500 g/ha: Echinochloa crus-galli, 312 h, read-out: Control of weed species ECHCG (100=total damage to plant; 0=no damage to plant)
Procedure: as §1, §2, §3

Lolium perenne (LOLPE) = settings: for pest or weed control at 500 g/ha: Lolium perenne, 312 h, read-out: Control of weed species LOLPE (100=total damage to plant; 0=no damage to plant)
Procedure: as §1, §2, §3

[3] = system: Chenopodium album (CHEAL); settings: for pest or weed control at 500 g/ha: Chenopodium album, 312 h, read-out: Control of weed species CHEAL (100=total damage to plant; 0=no damage to plant)
Procedure: as §1, §2, §3

[4] = system: Amaranthus palmeri (AMAPA); settings: for pest or weed control at 500 g/ha: Amaranthus palmeri, 312 h, read-out: Control of weed species AMAPA (100=total damage to plant; 0=no damage to plant)
Procedure: as §1, §2, §3

[5] = system: Digitaria sanguinalis (DIGSA); settings: for pest or weed control at 500 g/ha: Digitaria sanguinalis, 312 h, read-out: Control of weed species DIGSA (100=total damage to plant; 0=no damage to plant)
Procedure: as §1, §2, §3

Setaria faberi (SETFA) = settings: for pest or weed control at 500 g/ha: Setaria faberi, 312 h, read-out: Control of weed species SETFA (100=total damage to plant; 0=no damage to plant)
Procedure: as §1, §2, §3

[6] = system: Euphorbia heterophylla (EPHHL); settings: Euphorbia heterophylla, 312 h, read-out: Control of weed species EPHHL (100=total damage to plant; 0=no damage to plant)
Procedure: as §1, §2, §3

[7] = post-emergence application, 500 g/Ha, evaluated after 13 days

| SMILES | pest or weed control at 500 g/ha (Eleusine indica (ELEIN); [7]) | pest or weed control at 500 g/ha [1, 7] | pest or weed control at 500 g/ha [2, 7] | pest or weed control at 500 g/ha (Lolium perenne (LOLPE); [7]) | pest or weed control at 500 g/ha [3, 7] | pest or weed control at 500 g/ha [4, 7] | pest or weed control at 500 g/ha [5, 7] | pest or weed control at 500 g/ha (Setaria faberi (SETFA); [7]) | pest or weed control at 500 g/ha [6, 7] | further results |
| --- | --- | --- | --- | --- | --- | --- | --- | --- | --- | --- |
| CC1(C)CC1NC(=O)c1cc[n+](CCC(=O)O)nc1 (stereo not drawn) [Compound A137] | 100% | 0% | 100% | 100% | 90% | 100% | 100% | 70% | 10% | – |
| O=C(O)CC[n+]1ccc(C(=O)NC2C[S+]([O-])C2)cn1 (stereo not drawn) [Compound A68] | – | 100% | 100% | 90% | 90% | 100% | 100% | 70% | 100% | – |
| CCNC(=O)c1cc[n+](CCS(=O)(=O)[O-])nc1 [Compound A48] | 100% | 80% | 70% | 70% | – | 90% | 90% | 90% | – | – |
| CCCCNC(=O)c1cc[n+](CCC(=O)O)nc1 [Compound A45] | 80% | 30% | 70% | 60% | 90% | 80% | 70% | 90% | – | – |
| CNC(=O)c1cc[n+](CCS(=O)(=O)[O-])nc1-c1ccccc1 [Compound A54] | 50% | 10% | 40% | 0% | 70% | 80% | 60% | 20% | – | – |
| CCNC(=O)c1cc[n+](C[C@H](N)C(=O)O)nc1 [Compound A121, [(1S)-1-carboxy-2-[4-(ethylcarbamoyl)pyridazin-1-ium-1-yl]ethyl]ammonium 2,2,2-trifluoroacetate] | – | – | – | – | – | – | – | – | – | pest or weed control at 500 g/ha (Eleusine indica (ELEIN); post-emergence): 10%; pest or weed control at 500 g/ha ([1]; post-emergence): 10%; pest or weed control at 500 g/ha ([2]; post-emergence): 10%; pest or weed control at 500 g/ha (Lolium perenne (LOLPE); post-emergence): 10%; pest or weed control at 500 g/ha ([3]; post-emergence): 20%; pest or weed control at 500 g/ha ([4]; post-emergence): 10%; pest or weed control at 500 g/ha (Setaria faberi (SETFA); post-emergence): 10%; pest or weed control at 500 g/ha ([6]; post-emergence): 30% |
| CNC(=O)c1cc[n+](CCS(=O)(=O)[O-])nc1C [Compound A56] | – | – | – | – | – | – | – | – | – | Control of weed species ELEIN (100=total damage to plant; 0=no damage to plant) (Eleusine indica (ELEIN); [7]): 60; Control of weed species IPOHE (100=total damage to plant; 0=no damage to plant) [1, 7]: 30; Control of weed species ECHCG (100=total damage to plant; 0=no damage to plant) [2, 7]: 90; Control of weed species LOLPE (100=total damage to plant; 0=no damage to plant) (Lolium perenne (LOLPE); [7]): 40; Control of weed species CHEAL (100=total damage to plant; 0=no damage to plant) [3, 7]: 90; Control of weed species AMAPA (100=total damage to plant; 0=no damage to plant) [4, 7]: 100; Control of weed species DIGSA (100=total damage to plant; 0=no damage to plant) [5, 7]: 80; Control of weed species SETFA (100=total damage to plant; 0=no damage to plant) (Setaria faberi (SETFA); [7]): 60 |
| C#CC(C)(C)NC(=O)c1cc[n+](CCC(=O)O)nc1 [Compound A77] | – | 10% | – | 80% | 90% | 100% | – | 100% | 100% | – |
| CNC(=O)c1cc[n+](CCC(=O)O)nc1 [Compound A4, 3-[4-(methylcarbamoyl)pyridazin-1-ium-1-yl]propanoic acid trifluoroacetate] | – | – | – | – | – | – | – | – | – | pest or weed control at 500 g/ha (Eleusine indica (ELEIN); post-emergence): 100%; pest or weed control at 500 g/ha ([1]; post-emergence): 80%; pest or weed control at 500 g/ha ([2]; post-emergence): 90%; pest or weed control at 500 g/ha (Lolium perenne (LOLPE); post-emergence): 60%; pest or weed control at 500 g/ha ([3]; post-emergence): 80%; pest or weed control at 500 g/ha ([5]; post-emergence): 100%; pest or weed control at 500 g/ha (Setaria faberi (SETFA); post-emergence): 90%; pest or weed control at 500 g/ha ([6]; post-emergence): 90% |
| O=C(O)CC[n+]1ccc(C(=O)NC2CCCC2)cn1 [Compound A58] | 90% | 30% | 70% | 90% | 60% | 70% | 90% | 90% | – | – |
| CNC(=O)c1cc[n+](CCC(=O)O)nc1-c1ccccc1 [Compound A55] | 30% | 40% | 80% | 0% | 80% | 100% | 60% | 40% | – | – |
| CC(C)N(C)C(=O)c1cc[n+](CCS(=O)(=O)O)nc1 [Compound A9] | 20% | 30% | 30% | 30% | 90% | 90% | 50% | 60% | – | – |
| O=C(O)CC[n+]1ccc(C(=O)NC2CS(=O)(=O)C2)cn1 [Compound A67] | 90% | 30% | 100% | 90% | 50% | 30% | 100% | 100% | – | – |
| O=C(NCCO)c1cc[n+](CCS(=O)(=O)[O-])nc1 [Compound A49] | 30% | 70% | 80% | 60% | 80% | 100% | 100% | 90% | – | – |
| CCNC(=O)c1cc[n+](CCP(=O)(O)O)nc1 [Compound A119] | 30% | 50% | 30% | 20% | 100% | 100% | – | 50% | 80% | – |
| C#CC(C)NC(=O)c1cc[n+](CCC(=O)O)nc1 (stereo not drawn) [Compound A78] | – | 90% | – | 80% | 100% | 100% | – | 100% | 70% | – |
| CC(=O)NNC(=O)c1cc[n+](CCC(=O)O)nc1 [Compound A105] | 30% | 30% | 40% | 10% | 70% | 50% | – | 60% | 60% | – |
